How the values were obtained:
AZD4320 = compound: CN(CC[C@H](CSC1=CC=CC=C1)NC2=C(C=C(C=C2)S(=O)(=O)NC(=O)C3=CC=C(C=C3)N4CCC(CC4)[C@H](C5=CC=CC=C5C6=CC=C(C=C6)Cl)O)S(=O)(=O)C(F)(F)F)CCO [AZD4320]; conditions: max 1 µM
In short: (§1)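 Cancer cell lines were plated in 1536-well plates in 7.5 μl of DMEM/F12 or RPMI with 10% FBS and kept 24 hours at 37°C and 5% CO2 before 72 hours of dosing, with final DMSO typically 0.2%. CellTiter-Glo 2.0 luminescence measured viability, scaled between blank-well and DMSO-well means. Dose responses were fitted to a two-parameter logistic curve with a non-linear mixed effects model. This fit gives the single-agent IC50.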

Prexasertib = compound: COc1cccc(OCCCN)c1-c1cc(Nc2cnc(C#N)cn2)n[nH]1 [Prexasertib]; conditions: max 1 µM
In short: as §1

Gemcitabine = compound: Nc1ccn([C@@H]2O[C@H](CO)[C@@H](O)C2(F)F)c(=O)n1 [Gemcitabine]; conditions: max 0.3 µM
In short: as §1

AZD5363 = compound: C1CN(CCC1(C(=O)N[C@@H](CCO)C2=CC=C(C=C2)Cl)N)C3=NC=NC4=C3C=CN4 [AZD5363]; conditions: max 10 µM
In short: as §1

Carboplatin = compound: C1CC(C1)(C(=O)[O-])C(=O)[O-].N.N.[Pt+2] [Carboplatin]; conditions: max 10 µM
In short: as §1

AZD5153 = compound: COc1nnc2ccc(N3CCC(c4ccc(OCCN5CCN(C)C(=O)[C@H]5C)cc4)CC3)nn12 [AZD5153]; conditions: max 1 µM
In short: as §1

Dasatinib = compound: CC1=C(C(=CC=C1)Cl)NC(=O)C2=CN=C(S2)NC3=CC(=NC(=N3)C)N4CCN(CC4)CCO [Dasatinib]; conditions: max 2 µM
In short: as §1

Lapatinib = compound: CS(=O)(=O)CCNCc1ccc(-c2ccc3ncnc(Nc4ccc(OCc5cccc(F)c5)c(Cl)c4)c3c2)o1 [Lapatinib]; conditions: max 10 µM
In short: as §1

5-Fluorouracil = compound: O=c1[nH]cc(F)c(=O)[nH]1 [5-Fluorouracil]; conditions: max 20 µM
In short: as §1

Olaparib = compound: O=C(c1cc(Cc2n[nH]c(=O)c3ccccc23)ccc1F)N1CCN(C(=O)C2CC2)CC1 [Olaparib]; conditions: max 10 µM
In short: as §1

Etoposide = compound: COc1cc([C@@H]2c3cc4c(cc3[C@@H](O[C@@H]3O[C@@H]5CO[C@@H](C)O[C@H]5[C@H](O)[C@H]3O)[C@H]3COC(=O)[C@H]23)OCO4)cc(OC)c1O [Etoposide]; conditions: max 10 µM
In short: as §1

SG3199 = compound: CC1=CN2[C@@H](C1)C=NC3=CC(=C(C=C3C2=O)OC)OCCCCCOC4=C(C=C5C(=C4)N=C[C@@H]6CC(=CN6C5=O)C)OC [SG3199]; conditions: max 0.001 µM
In short: as §1

SN-38 = compound: CCc1c2c(nc3ccc(O)cc13)-c1cc3c(c(=O)n1C2)COC(=O)[C@]3(O)CC [SN-38]; conditions: max 0.3 µM
In short: as §1

AZD1775 = compound: C=CCn1c(=O)c2cnc(Nc3ccc(N4CCN(C)CC4)cc3)nc2n1-c1cccc(C(C)(C)O)n1 [AZD1775]; conditions: max 3 µM
In short: as §1

Doxorubicin = compound: COc1cccc2c1C(=O)c1c(O)c3c(c(O)c1C2=O)C[C@@](O)(C(=O)CO)C[C@@H]3O[C@H]1C[C@H](N)[C@H](O)[C@H](C)O1 [Doxorubicin]; conditions: max 1 µM
In short: as §1

Trametinib = compound: CC(=O)Nc1cccc(-n2c(=O)n(C3CC3)c(=O)c3c(Nc4ccc(I)cc4F)n(C)c(=O)c(C)c32)c1 [Trametinib]; conditions: max 1 µM
In short: as §1

Taselisib = compound: Cc1nc(-c2cn3c(n2)-c2ccc(-c4cnn(C(C)(C)C(N)=O)c4)cc2OCC3)n(C(C)C)n1 [Taselisib]; conditions: max 10 µM
In short: as §1

SRA737 = compound: N#Cc1cnc(Nc2cc(NC[C@H]3CNCCO3)c(C(F)(F)F)cn2)cn1 [SRA737]; conditions: max 10 µM
In short: as §1

Crizotinib = compound: C[C@@H](Oc1cc(-c2cnn(C3CCNCC3)c2)cnc1N)c1c(Cl)ccc(F)c1Cl [Crizotinib]; conditions: max 10 µM
In short: as §1

AZD8186 = compound: C[C@@H](Nc1cc(F)cc(F)c1)c1cc(C(=O)N(C)C)cc2c(=O)cc(N3CCOCC3)oc12 [AZD8186]; conditions: max 10 µM
In short: as §1

AZD6738 = compound: C[C@@H]1COCCN1C2=NC(=NC(=C2)C3(CC3)[S@](=N)(=O)C)C4=C5C=CNC5=NC=C4 [AZD6738]; conditions: max 10 µM
In short: as §1

AZD7648 = compound: Cc1cc2ncnn2cc1Nc1ncc2c(n1)n(C1CCOCC1)c(=O)n2C [AZD7648]; conditions: max 10 µM
In short: as §1

AZD0156 = compound: CN(C)CCCOc1ccc(-c2ccc3ncc4c(c3c2)n(C2CCOCC2)c(=O)n4C)cn1 [AZD0156]; conditions: max 3 µM
In short: as §1

Alisertib = compound: COc1cc(Nc2ncc3c(n2)-c2ccc(Cl)cc2C(c2c(F)cccc2OC)=NC3)ccc1C(=O)O [Alisertib]; conditions: max 10 µM
In short: as §1

Selumetinib = compound: Cn1cnc2c(F)c(Nc3ccc(Br)cc3Cl)c(C(=O)NOCCO)cc21 [Selumetinib]; conditions: max 10 µM
In short: as §1

Palbociclib = compound: CC(=O)c1c(C)c2cnc(Nc3ccc(N4CCNCC4)cn3)nc2n(C2CCCC2)c1=O [Palbociclib]; conditions: max 10 µM
In short: as §1

Savolitinib = compound: C[C@@H](c1ccc2nccn2c1)n1nnc2ncc(-c3cnn(C)c3)nc21 [Savolitinib]; conditions: max 1 µM
In short: as §1

Paclitaxel = compound: CC(=O)O[C@H]1C(=O)[C@@]2(C)[C@H]([C@H](OC(=O)c3ccccc3)[C@]3(O)C[C@H](OC(=O)[C@H](O)[C@@H](NC(=O)c4ccccc4)c4ccccc4)C(C)=C1C3(C)C)[C@]1(OC(C)=O)CO[C@@H]1C[C@@H]2O [Paclitaxel]; conditions: max 3 µM
In short: as §1

Gefitinib = compound: COc1cc2ncnc(Nc3ccc(F)c(Cl)c3)c2cc1OCCCN1CCOCC1 [Gefitinib]; conditions: max 10 µM
In short: as §1

MK-2206 = compound: NC1(c2ccc(-c3nc4ccn5c(=O)[nH]nc5c4cc3-c3ccccc3)cc2)CCC1 [MK-2206]; conditions: max 10 µM
In short: as §1

Venetoclax = compound: CC1(C)CCC(CN2CCN(c3ccc(C(=O)NS(=O)(=O)c4ccc(NCC5CCOCC5)c([N+](=O)[O-])c4)c(Oc4cnc5[nH]ccc5c4)c3)CC2)=C(c2ccc(Cl)cc2)C1 [Venetoclax]; conditions: max 1 µM
In short: as §1

[1] = compound: O=C(Nc1ccc2[nH]nc(-c3ccncc3)c2c1)[C@@H]1CCN(CC(=O)N2CCN(c3ccc(-c4ncccn4)cc3)CC2)C1; conditions: max 5 µM
In short: as §1

AZD2811 = compound: CCN(CCO)CCCOc1ccc2c(Nc3cc(CC(=O)Nc4cccc(F)c4)[nH]n3)ncnc2c1 [AZD2811]; conditions: max 1 µM
In short: as §1

AZD5991 = compound: Cc1c2c(nn1C)CSCc1cc(n(C)n1)CSc1cc(c3ccccc3c1)OCCCc1c(C(=O)O)n(C)c3c-2c(Cl)ccc13 [AZD5991]; conditions: max 1 µM
In short: as §1

AZD1390 = compound: CC(C)n1c(=O)n(C)c2cnc3cc(F)c(-c4ccc(OCCCN5CCCCC5)nc4)cc3c21 [AZD1390]; conditions: max 0.3 µM
In short: as §1

Row | Cell Line | IC50, cell viability 72 h (AZD4320) [µM] | IC50, cell viability 72 h (Prexasertib) [µM] | IC50, cell viability 72 h (Gemcitabine) [µM] | IC50, cell viability 72 h (AZD5363) [µM] | IC50, cell viability 72 h (Carboplatin) [µM] | IC50, cell viability 72 h (AZD5153) [µM] | IC50, cell viability 72 h (Dasatinib) [µM] | IC50, cell viability 72 h (Lapatinib) [µM] | IC50, cell viability 72 h (5-Fluorouracil) [µM] | IC50, cell viability 72 h (Olaparib) [µM] | IC50, cell viability 72 h (Etoposide) [µM] | IC50, cell viability 72 h (SG3199) [µM] | IC50, cell viability 72 h (SN-38) [µM] | IC50, cell viability 72 h (AZD1775) [µM] | IC50, cell viability 72 h (Doxorubicin) [µM] | IC50, cell viability 72 h (Trametinib) [µM] | IC50, cell viability 72 h (Taselisib) [µM] | IC50, cell viability 72 h (SRA737) [µM] | IC50, cell viability 72 h (Crizotinib) [µM] | IC50, cell viability 72 h (AZD8186) [µM] | IC50, cell viability 72 h (AZD6738) [µM] | IC50, cell viability 72 h (AZD7648) [µM] | IC50, cell viability 72 h (AZD0156) [µM] | IC50, cell viability 72 h (Alisertib) [µM] | IC50, cell viability 72 h (Selumetinib) [µM] | IC50, cell viability 72 h (Palbociclib) [µM] | IC50, cell viability 72 h (Savolitinib) [µM] | IC50, cell viability 72 h (Paclitaxel) [µM] | IC50, cell viability 72 h (Gefitinib) [µM] | IC50, cell viability 72 h (MK-2206) [µM] | IC50, cell viability 72 h (Venetoclax) [µM] | IC50, cell viability 72 h [1] [µM] | IC50, cell viability 72 h (AZD2811) [µM] | IC50, cell viability 72 h (AZD5991) [µM] | IC50, cell viability 72 h (AZD1390) [µM]
1 | TE-5 (Esophageal Squamous Cell Carcinoma) | > 1 | 0.884 | 0.0714 | > 10 | > 10 | > 1 | > 2 | > 10 | > 20 | > 10 | > 10 | > 0.001 | 0.0558 | > 3 | > 1 | > 1 | 2.04 | > 10 | > 10 | > 10 | > 10 | > 10 | > 3 | > 10 | > 10 | > 10 | > 1 | 0.0798 | > 10 | > 10 | > 1 | > 5 | > 1 | > 1 | > 0.3
2 | U-266 (Plasma Cell Myeloma) | 0.841 | 0.0506 | 0.131 | > 10 | > 10 | > 1 | > 2 | > 10 | > 20 | > 10 | > 10 | > 0.001 | > 0.3 | 1.03 | > 1 | 0.225 | > 10 | > 10 | > 10 | > 10 | > 10 | > 10 | > 3 | 9.54 | > 10 | > 10 | > 1 | 0.0102 | > 10 | > 10 | > 1 | 4.96 | > 1 | 0.219 | > 0.3

— the supplement of paper PMC11061612
